Measured values from patent publication US10344039B2, “Macrocyclic spirocarbamate derivatives as factor XIa inhibitors, pharmaceutically acceptable compositions and their use” (MERCK SHARP & DOHME CORP., priority 2015, dated 2019).

Tests used:
[1] = target: T1, purified human Factor XIa (Homo sapiens, UniProt P03951); assay: Factor XIa Assay; assay type: biochemical; conditions: purified human Factor XIa 40 pM; substrate Z-Gly-Pro-Arg-AFC 100 μM; 50 mM HEPES pH 7.4; read-out: Hu FXIa Ki
T1 construct: purified human Factor XIa; purchased Sekisui Diagnostics
Method: The effectiveness of a compound of the present invention as an inhibitor of Coagulation Factor XIa can be determined using a relevant purified serine protease, and an appropriate synthetic substrate. The rate of hydrolysis of the chromogenic or fluorogenic substrate by the relevant serine protease was measured both in the absence and presence of compounds of the present invention. Assays were conducted at room temperature or at 37° C. […] A decrease in the rate of fluorescence change in the presence of inhibitor is indicative of enzyme inhibition. Such methods are known to one skilled in the art. The results of this assay are expressed as the inhibitory constant, Ki.
Factor XIa determinations were made in 50 mM HEPES buffer at pH 7.4 containing 150 mM NaCl, 5 mM CaCl2, and 0.1% PEG 8000 (polyethylene glycol; JT Baker or Fisher Scientific). Determinations were made using purified human Factor XIa at a final concentration of 40 pM (Sekisui Diagnostics) and he synthetic substrate, Z-Gly-Pro-Arg-AFC, TFA salt (Sigma #C0980) at a concentration of 100 μM.
Activity assays were performed by diluting a stock solution of substrate at least tenfold to a final concentration ≤0.1 Km into a solution containing enzyme or enzyme equilibrated with inhibitor. Times required to achieve equilibration between enzyme and inhibitor were determined in control experiments. Initial velocities of product formation in the absence (Vo) or presence of inhibitor (Vi) were measured. Assuming competitive inhibition, and that unity is negligible compared Km/[S], [I]/e, and [I]/e (where [S], [I], and e respectively represent the total concentrations, of substrate, inhibitor and enzyme), the equilibrium constant (Ki) for dissociation of the inhibitor from the enzyme can be obtained from the dependence of Vo/Vi on [I] shown in the following equation. Vo/Vi=1+[I]/Ki
The activities shown by this assay indicate that the compounds of the invention may be therapeutically useful for treating or preventing various cardiovascular and/or cerebrovascular thromboembolic conditions in patients suffering from unstable angina, acute coronary syndrome, refractory angina, myocardial infarction, transient ischemic attacks, atrial fibrillation, stroke such as thrombotic stroke or embolic stroke, venous thrombosis, coronary and cerebral arterial thrombosis, cerebral and pulmonary embolism, atherosclerosis, deep vein thrombosis, disseminated intravascular coagulation, and reocclusion or restenosis of recanalized vessels. The Ki values measured for each of the example compounds of the invention using this assay are reported in the tables above (as “Hu FXIa Ki (nM)”).

[2] = target: T2, purified Human plasma kallikrein (Homo sapiens, UniProt P03952); assay: Kallikrein Assay; assay type: biochemical; conditions: purified Human plasma kallikrein 0.5 nM; substrate Acetyl-K-P-R-AFC; 50 mM HEPES pH 7.4; Ki from IC50 by Cheng Prusoff equation; read-out: Hu P. Kallikrein
T2 construct: yields a heavy chain (371 amino acids) and a light chain (248 amino acids); purchased Enzyme Research Laboratories
Method: The effectiveness of a compound of the present invention as an inhibitor of Kallikrein can be determined using a relevant purified serine protease, and an appropriate synthetic substrate. The rate of hydrolysis of the chromogenic or fluorogenic substrate by the relevant serine protease was measured both in the absence and presence of compounds of the present invention. Assays were conducted at room temperature or at 37° C. […] A decrease in the rate of fluorescence change in the presence of inhibitor is indicative of enzyme inhibition. Such methods are known to one skilled in the art. The results of this assay are expressed as the inhibitory constant, Ki. Kallikrein determinations were made in 50 mM HEPES buffer at pH 7.4 containing 150 mM NaCl, 5 mM CaCl2, and 0.1% PEG 8000 (polyethylene glycol; Fisher Scientific). Determinations were made using purified Human plasma kallikrein at a final concentration of 0.5 nM (Enzyme Research Laboratories) and the synthetic substrate, Acetyl-K—P-R-AFC (Sigma # C6608) at a concentration of […]. Activity assays were performed by diluting a stock solution of substrate at least tenfold to a final concentration ≤0.2 Km into a solution containing enzyme or enzyme equilibrated with inhibitor. Times required to achieve equilibration between enzyme and inhibitor were determined in control experiments. The reactions were performed under linear progress curve conditions and fluorescence increase measured at 405 Ex/510 Em nm. Values were converted to percent inhibition of the control reaction (after subtracting 100% Inhibition value). IC50 was determined by inflection point from a four parameter logistic curve fit. Ki was calculated using the Cheng Prusoff equation, Ki=IC50/(1+([S]/Km)). The activities shown by this assay indicate that the compounds of the invention may be therapeutically useful for treating or preventing various cardiovascular and/or cerebrovascular thromboembolic conditions in patients suffering from unstable angina, acute coronary syndrome, refractory angina, myocardial infarction, transient ischemic attacks, atrial fibrillation, stroke such as thrombotic stroke or embolic stroke, venous thrombosis, coronary and cerebral arterial thrombosis, cerebral and pulmonary embolism, atherosclerosis, deep vein thrombosis, disseminated intravascular coagulation, and reocclusion or restenosis of recanalized vessels.

T2 sequence (P03952 391-638 limits assumed): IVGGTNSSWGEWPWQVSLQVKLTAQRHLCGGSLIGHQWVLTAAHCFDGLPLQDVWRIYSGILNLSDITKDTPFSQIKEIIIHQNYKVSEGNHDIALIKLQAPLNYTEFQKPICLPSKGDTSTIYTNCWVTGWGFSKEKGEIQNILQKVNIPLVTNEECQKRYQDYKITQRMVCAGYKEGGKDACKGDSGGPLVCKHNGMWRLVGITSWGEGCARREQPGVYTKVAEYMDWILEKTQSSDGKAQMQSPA
T2 sequence (P03952 20-390 partner limits assumed): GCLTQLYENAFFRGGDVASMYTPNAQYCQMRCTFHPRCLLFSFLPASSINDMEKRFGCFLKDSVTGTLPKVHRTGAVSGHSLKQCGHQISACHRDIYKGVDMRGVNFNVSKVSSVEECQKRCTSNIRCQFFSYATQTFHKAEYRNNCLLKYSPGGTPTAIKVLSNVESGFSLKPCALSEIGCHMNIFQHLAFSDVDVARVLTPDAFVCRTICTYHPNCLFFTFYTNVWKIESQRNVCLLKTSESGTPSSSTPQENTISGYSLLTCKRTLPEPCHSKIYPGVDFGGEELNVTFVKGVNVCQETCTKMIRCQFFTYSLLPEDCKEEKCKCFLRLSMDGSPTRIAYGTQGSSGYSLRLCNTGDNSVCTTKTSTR
T1 sequence (P03951 388-625 limits assumed): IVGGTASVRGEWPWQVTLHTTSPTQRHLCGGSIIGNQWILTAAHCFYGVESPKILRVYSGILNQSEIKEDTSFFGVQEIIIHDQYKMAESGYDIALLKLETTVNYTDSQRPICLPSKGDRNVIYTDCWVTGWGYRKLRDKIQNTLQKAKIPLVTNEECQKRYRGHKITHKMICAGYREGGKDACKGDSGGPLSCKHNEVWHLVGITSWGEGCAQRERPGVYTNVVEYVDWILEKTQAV
T1 sequence (P03951 19-387 partner limits assumed): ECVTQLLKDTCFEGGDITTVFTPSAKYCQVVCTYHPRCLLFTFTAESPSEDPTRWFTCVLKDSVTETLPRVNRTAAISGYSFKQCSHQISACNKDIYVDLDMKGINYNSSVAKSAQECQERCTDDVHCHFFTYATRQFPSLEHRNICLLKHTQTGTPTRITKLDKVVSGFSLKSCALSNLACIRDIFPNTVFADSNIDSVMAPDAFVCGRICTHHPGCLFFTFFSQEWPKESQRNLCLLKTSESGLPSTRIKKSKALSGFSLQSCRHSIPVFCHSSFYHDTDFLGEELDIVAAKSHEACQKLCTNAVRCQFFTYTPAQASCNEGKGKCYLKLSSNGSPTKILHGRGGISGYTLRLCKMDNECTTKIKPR

Row | Ki [1] | Ki [2] | Structure (SMILES)
1 | 0.86 nM | 1.24 nM | COC(=O)Nc1ccc2c(c1)NC(=O)CCCCC(C(=O)N1CC[C@@]3(C1)OC(=O)Nc1ccc(Cl)c(F)c13)c1nc-2c[nH]1 (mixture of isomers) [Example 4, methyl ((Z)-9-((R)-6-chloro-5-fluoro-2-oxo-1,2-dihydrospiro[benzo[d][1,3]oxazine-4,3′-pyrrolidine]-1′-carbonyl)-4-oxo-1^1H-3-aza-1(4,2)-imidazola-2(1,2)-benzenacyclononaphane-2^4-yl)carbamate]
2 | 0.25 nM | 0.56 nM | COC(=O)Nc1ccc2c(c1)NC(=O)CCCCC(C(=O)N1CCC[C@@]3(C1)OC(=O)Nc1ccc(Cl)c(F)c13)c1nc-2c(Cl)[nH]1 (mixture of isomers) [Example 8, methyl ((Z)-1^5-chloro-9-((R)-6-chloro-5-fluoro-2-oxo-1,2-dihydrospiro[benzo[d][1,3]oxazine-4,3′-piperidine]-1′-carbonyl)-4-oxo-1^1H-3-aza-1(4,2)-imidazola-2(1,2)-benzenacyclononaphane-2^4-yl)carbamate]
3 | 0.34 nM | 0.57 nM | COC(=O)Nc1ccc2c(c1)NC(=O)CCCCC(C(=O)N1CC[C@@]3(C1)OC(=O)Nc1ccc(Cl)c(F)c13)c1nc-2c(Cl)[nH]1 (mixture of isomers) [Example 9, methyl ((Z)-1^5-chloro-9-((R)-6-chloro-5-fluoro-2-oxo-1,2-dihydrospiro[benzo[d][1,3]oxazine-4,3′-pyrrolidine]-1′-carbonyl)-4-oxo-1^1H-3-aza-1(4,2)-imidazola-2(1,2)-benzenacyclononaphane-2^4-yl)carbamate]
4 | 0.74 nM | 1.32 nM | COC(=O)Nc1ccc2c(c1)NC(=O)[C@H](C)CCCC(C(=O)N1CC[C@@]3(C1)OC(=O)Nc1ccc(Cl)c(F)c13)c1nc-2c(Cl)[nH]1 (mixture of isomers) [Example 11]
5 | 2.7 nM | 1.28 nM | COC(=O)Nc1ccc2c(c1)NC(=O)CCCCC(C(=O)N1CCC[C@@]3(C1)OC(=O)Nc1ccc(Cl)c(F)c13)c1nc-2c(C)[nH]1 (mixture of isomers) [Example 12, methyl ((Z)-9-((R)-6-chloro-5-fluoro-2-oxo-1,2-dihydrospiro[benzo[d][1,3]oxazine-4,3′-piperidine]-1′-carbonyl)-1^5-methyl-4-oxo-1^1H-3-aza-1(4,2)-imidazola-2(1,2)-benzenacyclononaphane-2^4-yl)carbamate]
6 | 3.93 nM | 1.22 nM | O=C1CCCCC(C(=O)N2CC[C@@]3(C2)OC(=O)Nc2ccc(Cl)c(F)c23)c2cc(ccn2)-c2cc3ccc(=O)[nH]c3cc2N1 (mixture of isomers) [Example 26, 3-((R)-6-chloro-5-fluoro-2-oxo-1,2-dihydrospiro[benzo[d][1,3]oxazine-4,3′-pyrrolidine]-1′-carbonyl)-1^1,1^2-dihydro-9-aza-1(6,7)-quinolina-2(4,2)-pyridinacyclononaphane-1^2,8-dione]
7 | 13 nM | 0.6 nM | O=C1CCCCC(C(=O)N2CCC[C@@]3(C2)OC(=O)Nc2ccc(Cl)c(F)c23)c2cc(ccn2)-c2cc3ccc(=O)[nH]c3cc2N1 (mixture of isomers) [Example 27, 3-((R)-6-chloro-5-fluoro-2-oxo-1,2-dihydrospiro[benzo[d][1,3]oxazine-4,3′-piperidine]-1′-carbonyl)-1^1,1^2-dihydro-9-aza-1(6,7)-quinolina-2(4,2)-pyridinacyclononaphane-1^2,8-dione]
8 | 4.94 nM | 15.5 nM | CCOC(=O)C1CCCCC(C(=O)N2CCC[C@@]3(C2)OC(=O)Nc2ccc(Cl)c(F)c23)c2nc(c[nH]2)-c2ccc(NC(=O)OC)cc2N1 (mixture of isomers) [Example 32, ethyl (Z)-9-((R)-6-chloro-5-fluoro-2-oxo-1,2-dihydrospiro[benzo[d][1,3]oxazine-4,3′-piperidine]-1′-carbonyl)-2^4-((methoxycarbonyl)amino)-1^1H-3-aza-1(4,2)-imidazola-2(1,2)-benzenacyclononaphane-4-carboxylate]
9 | 2.37 nM | 1.99 nM | COC(=O)Nc1ccc2c(c1)NC(=O)CCCC[C@@H](C(=O)N1CC[C@@]3(C1)OC(=O)Nc1ccc(Cl)cc13)c1nc-2c[nH]1 (single isomer, unassigned) [Example 1a]
10 | 0.37 nM | 0.69 nM | COC(=O)Nc1ccc2c(c1)NC(=O)CCCC[C@@H](C(=O)N1CC[C@@]3(C1)OC(=O)Nc1ccc(Cl)cc13)c1nc-2c(Cl)[nH]1 (single isomer, unassigned) [Example 6a]
11 | 16 nM | 32 nM | COC(=O)Nc1ccc2c(c1)NC(=O)CCCC[C@H](C(=O)N1CC[C@@]3(C1)OC(=O)Nc1ccc(Cl)cc13)c1nc-2c(Cl)[nH]1 (single isomer, unassigned) [Example 6b]
12 | 0.93 nM | 1.29 nM | COC(=O)Nc1ccc2c(c1)NC(=O)CCCC[C@@H](C(=O)N1CCC[C@@]3(C1)OC(=O)Nc1ccc(Cl)c(F)c13)c1nc-2c(C)[nH]1 (single isomer, unassigned) [Example 12b]
13 | 31.1 nM | 1.7 nM | COC(=O)Nc1ccc2c(c1)NC(=O)C(C)CCCC(C(=O)N1CCC[C@@]3(C1)OC(=O)Nc1ccc(Cl)cc13)c1cc-2ccn1 (single isomer, unassigned) [Example 15a]
14 | 44.2 nM | 8.5 nM | COC(=O)Nc1ccc2c(c1)NC(=O)CCCC[C@@H](C(=O)N1CC[C@@]3(C1)OC(=O)Nc1ccc(Cl)c(F)c13)c1cccc-2n1 (single isomer, unassigned) [Example 23b]
15 | 0.62 nM | 1.42 nM | CCOC(=O)C1CCCCC(C(=O)N2CCC[C@@]3(C2)OC(=O)Nc2ccc(Cl)c(F)c23)c2nc(c[nH]2)-c2ccc(NC(=O)OC)cc2N1 (single isomer, unassigned) [Example 32b]
16 | 2.74 nM | 0.82 nM | COC(=O)Nc1ccc2c(c1)NC(=O)CCCC[C@@H](C(=O)N1CCC[C@@]3(C1)OC(=O)Nc1ccc(Cl)cc13)c1nc-2c[nH]1 [Example 3a, methyl ((R,Z)-9-((R)-6-chloro-2-oxo-1,2-dihydrospiro[benzo[d][1,3]oxazine-4,3′-piperidine]-1′-carbonyl)-4-oxo-1^1H-3-aza-1(4,2)-imidazola-2(1,2)-benzenacyclononaphane-2^4-yl)carbamate]
17 | 0.42 nM | 0.39 nM | COC(=O)Nc1ccc2c(c1)NC(=O)CCCC[C@@H](C(=O)N1CCC[C@@]3(C1)OC(=O)Nc1ccc(Cl)cc13)c1nc-2c(Cl)[nH]1 [Example 7a, methyl ((R,Z)-1^5-chloro-9-((R)-6-chloro-2-oxo-1,2-dihydrospiro[benzo[d][1,3]oxazine-4,3′-piperidine]-1′-carbonyl)-4-oxo-11H-3-aza-1(4,2)-imidazola-2(1,2)-benzenacyclononaphane-2^4-yl)carbamate]
